Test: NBPT comparative solubility in solvents
Assay type: physicochemical
Conditions: room temperature; for maximum weight percentage of NBPT dissolved in the solvent: vials with 20, 30, 40 and 50 wt. % NBPT
Description: The solubility of the N-(n-butyl) thiophosphoric triamide (NBPT) was determined for thirteen solvents. Three of the solvents were caprolactam-derived solvents in accordance with compositions of this disclosure. The remaining ten were comparative solvents. The NBPT was 98% (HPLC) obtained from AK Scientific, Inc., Union City, California. The N-methyl-2-pyrrolidone was at least 99% pure and obtained from Sigma Aldrich of St. Louis, Missouri. The N-butyl-2-pyrrolidone was at least 98% pure and obtained from TCI America of Portland, Oregon. The methyl-5-(dimethylamino)-2-methyl-5-oxopentanoate/propylene glycol was 70-90% pure and obtained from Solvay S. A. of Princeton, N.J.
The solubility of NBPT was evaluated for each solvent by preparing four, 2 ml vials containing 20 wt. %, 30 wt. %, 40 wt. % and 50 wt. % of NBPT. To prepare the 20 wt. % vial, 0.040 g of NBPT was added to 0.160 ml of solvent. To prepare the 30 wt. % vial, 0.060 g of NBPT was added to 0.140 ml of solvent. To prepare the 40 wt. % vial, […] of NBPT was added to 0.120 ml of solvent. To prepare the 50 wt. % vial, 0.100 g of NBPT was added to 0.100 ml of solvent. The vials were capped and swirled at room temperature until no change in solubility was observed.
Solvents 1-3 are in accordance with compositions of the present disclosure. Solvents 4-13 are comparative solvents.

Row | Structure (SMILES) | maximum weight percentage of NBPT dissolved in the solvent [%] | NBPT dissolving performance compared with NMP
1 | COC(=O)CCCCC(=O)N(C)C [N,N-dimethyladipamide methyl ester] | 40 | –
2 | CCCCCCCCCC(=O)N(C)C [N,N-dimethyldecanamide] | 20 | –
3 | N#CCCN1CCCCCC1=O [N-(2-cyanoethyl)caprolactam] | <20 | –
4 | CCCCN1CCCC1=O [N-butyl-2-pyrrolidone] | 50 | –
5 | CCCCN1CCCCCC1=O [N-butylcaprolactam] | 40 | performed nearly as well as NMP
6 | CCN1CCCCCC1=O [N-ethylcaprolactam] | 50 | performed as well as NMP
7 | CN1CCCC1=O [N-methyl-2-pyrrolidone] | 50 | –
8 | CN1CCCCCC1=O [N-methylcaprolactam] | 50 | performed as well as NMP
9 | O=C1CCCCC1 [cyclohexanone] | 40 | –
10 | CC(=O)OC1CCCCC1 [cyclohexyl acetate] | <20 | –
11 | CCCC(=O)OC1CCCCC1 [cyclohexyl butyrate] | <20 | –
12 | COC1CCCCC1 [cyclohexyl methyl ether] | <20 | –
13 | COC(=O)C(C)CCC(=O)N(C)C (stereo not shown) [methyl-5-(dimethylamino)-2-methyl-5-oxopentanoate] | 30 | –

From patent US20190077724A1, “COMPOSITIONS AND METHODS FOR CROP NUTRITION” (AdvanSix Resins & Chemicals LLC, priority 2017, published 2019)
